This is an account of results in US20090104598A1, “Dopamine D2 receptor gene variants” (CENTRE FOR ADDICTION AND MENTAL HEALTH, priority 2006, published 2009).

One data set in a line: clinical. Particulars: human, in vivo. The source says:
Thus, % Score Change=(6 Month Score−Baseline Score)/(Baseline Score).

For data set [1] the following is noted: treatment refractory patients; Miller 1996; cited from earlier work.

The molecule `CN1CCN(C2=Nc3cc(Cl)ccc3Nc3ccccc32)CC1` [clozapine] registered a concentration at 6 month in the data set “clinical” of 0.399 µg/mL. For the same molecule, the “blood clozapine threshold level that increases likelihood of clinical response” value in data set [1] was 350 ng/mL.
